Reference: PMC12147034, “Identification of alkynyl nicotinamide HSN748 as a RET solvent-front mutant inhibitor with intracranial efficacy” (RSC Medicinal Chemistry, 2025)

How the values were obtained:
[1] = system: IMR-90 human lung fibroblasts; experiment: Cell viability in IMR-90 fibroblasts (5 days); type: cell-based; conditions: non-cancerous cells, Fig. S4
Procedure: The TEL-VEGFR2 cDNA was then subcloned into pLentP lentiviral vector.[21] and BaF3/TEL-VEGFR2 (B/TV) cells were generated by infecting BaF3 cells with the lentiviral TEL-VEGFR2 as described. Cell viability assay was performed using CellTiter-Glo reagent (G7573, Promega, Madison, WI, USA) after 3 days of drug treatment as described for BaF3-derived cells and 5 days for IMR-90 cells.
(§1) (A) IMR-90 normal human lung fibroblast cells were plated in 96-well plates and treated with indicated drugs for 5 days. (B) The non-transformed, IL-3-dependent BaF3 cells were cultured in medium with 0.5 nM mouse IL-3 in 96-well plates and treated as in (A) for 3 days. Viable cells were then determined using CellTiter-glo reagent. Data were from two triplicate experiments.
(§2) (1 picture or pasted object on this page, not shown here)

parental BaF3 cells = experiment: Cell viability in parental IL-3-dependent BaF3 cells (3 days); type: cell-based; conditions: Fig. S4
Procedure: as §1, §2

CN1CCN(Cc2ccc(NC(=O)c3cncc(C#Cc4cnc5cccnn45)c3)cc2C(F)(F)F)CC1 [HSN748]
inhibitory activity in IMR-90 human lung fibroblasts [1]: little inhibitory activity | inhibitory activity in parental BaF3 cells (parental BaF3 cells): little inhibitory activity
